6 compounds from ChEMBL document CHEMBL1201862, “PubChem BioAssay data set” (2004) can be followed below.

The nature of assay [1]: inhibitors of firefly luciferase expression or activity, dose response, H4 neuroglioma cells, luminescence (AID 1990). The class given is functional, cell-based.
Assay [2] is described as follows: luciferase reporter signal reduction – luminescence, H4-C neuroglioblastoma cells, dose response (AID 2458).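 Note: H4 neuroglioblastoma cells stably carrying a luciferase reporter gene fusion.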 In kind it is functional, cell-based.
Assay [3] has as its target T1, Luciferin 4-monooxygenase (Photinus pyralis, UniProt P08659). The assay is described as follows: Counter Screen for Luciferase-based Assay Positives. [Related pubchem assays: 620, 618, 411 ]. (In general: A counterscreen serves to expose hits that act by an unwanted route or on another target.)
A short description of assay [4]: cells. In kind it is functional, cell-based.
Assay [5] is described as follows: Luminescence Cell-Based Dose Response HTS to Identify Inhibitors of 5'UTR Stem-Loop Driven Prion Protein mRNA Translation in H4 Neuroglioblastoma Cells. [Related pubchem assays: 1827 (Project Summary), 1813 (Primary HTS)]. In kind it is functional.
Assay [6] in a line: inhibitors of SNCA 5'UTR-driven reporter translation, confirmation, H4 neuroglioma cells, luminescence (AID 1988). The class given is functional, cell-based.
In assay [7] the target is T1, Luciferin 4-monooxygenase. The assay is described as follows: firefly luciferase enzyme inhibitors, dose response, biochemical, luminescence (AID 1891).
A short description of assay [8]: Luminescence Cell-Based Dose Confirmation HTS to Identify Inhibitors of Platelet Dense Granule Release. [Related pubchem assays: 1663 (Primary HTS), 1678 (Summary of Project)]. The class given is functional.
Assay [9] can be described thus: Luminescence-based counterscreen assay for KLF5 inhibitors: dose response cell-based high throughput screening assay to identify cytotoxic compounds using the IEC-6 intestinal epithelial cell line. [Related pubchem assays: 1700 (Primary screen.), 1834 (Confirmation screen.), 1858 (Summary AID.), 1905 (Counterscreen.)]. In kind it is functional.
For a further assay, the system named is HT-1080. The assay is described as follows: cytotoxicity in HT1080 fibrosarcoma cells, cell-based, fluorescence readout (AID 620). In kind it is functional. The note with it: Homo sapiens.
Assay [10] deals with Mitogen-activated protein kinase 10 (Homo sapiens, UniProt P53779). The assay is described as follows: Dose response biochemical screening assay for inhibitors of c-Jun N-Terminal Kinase 3 (JNK3). [Related pubchem assays: 746 ].
Chain of Mitogen-activated protein kinase 10 (P53779 whole entry): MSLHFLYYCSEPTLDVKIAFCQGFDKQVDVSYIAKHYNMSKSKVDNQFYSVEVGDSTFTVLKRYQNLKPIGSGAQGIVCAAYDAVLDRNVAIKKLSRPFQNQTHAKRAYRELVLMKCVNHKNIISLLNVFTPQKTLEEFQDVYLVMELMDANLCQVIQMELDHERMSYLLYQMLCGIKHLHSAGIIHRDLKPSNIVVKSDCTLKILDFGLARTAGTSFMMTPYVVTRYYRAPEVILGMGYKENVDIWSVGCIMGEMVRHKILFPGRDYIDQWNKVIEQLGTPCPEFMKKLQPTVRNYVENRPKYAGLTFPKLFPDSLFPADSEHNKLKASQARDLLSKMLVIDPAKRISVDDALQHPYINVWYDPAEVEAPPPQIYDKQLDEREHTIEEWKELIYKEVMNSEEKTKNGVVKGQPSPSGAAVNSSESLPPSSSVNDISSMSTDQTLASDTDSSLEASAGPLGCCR
Assay [11] is described as follows: inhibitors of SNCA 5'UTR-driven translation, confirmation, luminescence, H4 neuroglioblastoma cells, dose confirmation (AID 2454).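 Note: H4 neuroglioblastoma cells carrying an alpha-synuclein 5'UTR luciferase reporter; potency for inhibition of the luciferase signal.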 The class given is functional, cell-based.
Assay [12] is described as follows: cytotoxicity in HEK-293T cells, dose response, cytotoxicity control for TCR NF-kB inhibitor project, luminescence, T-cell screen hits (AID 489026).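 Note: cells exposed to compound about 14 hours before the viability readout.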 The class given is functional, cell-based.
Assay [13] concerns the target Dual specificity tyrosine-phosphorylation-regulated kinase 1A (Rattus norvegicus, UniProt Q63470). The class given is biochemical, Homo sapiens.
In a further assay the test system is HeLa. The assay is described as follows: Cytotoxicity counterscreen assay for transcriptional activators of heat shock protein 70 (Hsp70). [Related pubchem assays: 1203, 1252 ]. In kind it is functional. The settings on record: Homo sapiens.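 Note: cells exposed to compound for 16 hours before readout.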
The target in assay [14] is DNA dC->dU-editing enzyme APOBEC-3A (Homo sapiens, UniProt P31941). The assay is described as follows: Dose Response confirmation of small molecule APOBEC3A DNA Deaminase Inhibitors via a fluorescence-based single-stranded DNA deaminase assay. [Related pubchem assays (depositor defined):AID493011, AID493024]. In kind it is functional.
Chain of DNA dC->dU-editing enzyme APOBEC-3A (P31941 whole entry): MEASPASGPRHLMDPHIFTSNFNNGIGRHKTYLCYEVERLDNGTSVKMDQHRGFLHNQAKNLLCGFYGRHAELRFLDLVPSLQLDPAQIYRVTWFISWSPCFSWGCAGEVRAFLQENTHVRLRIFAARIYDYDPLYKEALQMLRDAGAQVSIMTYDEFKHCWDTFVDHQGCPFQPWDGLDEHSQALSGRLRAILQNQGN
The target in assay [15] is DNA dC->dU-editing enzyme APOBEC-3G (Homo sapiens, UniProt Q9HC16). In kind it is functional.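 Note: Dose-response counterscreen measuring inhibition of APOBEC3G DNA deaminase activity, run while confirming APOBEC3A inhibitors.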
Chain of DNA dC->dU-editing enzyme APOBEC-3G (Q9HC16 whole entry): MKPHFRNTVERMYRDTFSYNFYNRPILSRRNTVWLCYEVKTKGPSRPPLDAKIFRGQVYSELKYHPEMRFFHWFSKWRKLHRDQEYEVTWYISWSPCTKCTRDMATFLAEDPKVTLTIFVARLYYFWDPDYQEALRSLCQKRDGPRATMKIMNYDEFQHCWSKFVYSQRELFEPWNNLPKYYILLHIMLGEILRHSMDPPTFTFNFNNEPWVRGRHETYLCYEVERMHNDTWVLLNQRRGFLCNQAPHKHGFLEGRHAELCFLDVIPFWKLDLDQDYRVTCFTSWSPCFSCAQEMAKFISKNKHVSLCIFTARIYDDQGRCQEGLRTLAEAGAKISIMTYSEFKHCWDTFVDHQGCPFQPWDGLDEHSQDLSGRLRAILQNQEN
The target of the next assay is Bcl-2-like protein 10 (Homo sapiens, UniProt Q9HD36). As to the kind of experiment: Biochemical TR3 FP assay of Bcl-B inhibitor potency, EC50 (AID 1243). In kind it is functional.
Chain of Bcl-2-like protein 10 (Q9HD36 whole entry): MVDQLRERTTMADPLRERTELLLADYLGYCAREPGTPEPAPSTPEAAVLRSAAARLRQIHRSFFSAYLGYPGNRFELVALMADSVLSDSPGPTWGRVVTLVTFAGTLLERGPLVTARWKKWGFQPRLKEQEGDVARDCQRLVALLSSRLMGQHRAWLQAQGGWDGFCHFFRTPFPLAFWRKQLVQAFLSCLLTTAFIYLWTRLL
Assay [16] deals with Streptococcus sp. 'group A'. As to the kind of experiment: growth inhibition of control SK(-) GAS strain, dose response, counter-screen for streptokinase expression inhibitor project, luminescence, kanamycin, BacTiterGlo, confirmation (AID 1900). In kind it is functional, organism-based.
In a further assay the target is T2, Streptokinase A (Streptococcus pyogenes serotype M1, UniProt P10520).
T2 sequence (P10520 whole entry): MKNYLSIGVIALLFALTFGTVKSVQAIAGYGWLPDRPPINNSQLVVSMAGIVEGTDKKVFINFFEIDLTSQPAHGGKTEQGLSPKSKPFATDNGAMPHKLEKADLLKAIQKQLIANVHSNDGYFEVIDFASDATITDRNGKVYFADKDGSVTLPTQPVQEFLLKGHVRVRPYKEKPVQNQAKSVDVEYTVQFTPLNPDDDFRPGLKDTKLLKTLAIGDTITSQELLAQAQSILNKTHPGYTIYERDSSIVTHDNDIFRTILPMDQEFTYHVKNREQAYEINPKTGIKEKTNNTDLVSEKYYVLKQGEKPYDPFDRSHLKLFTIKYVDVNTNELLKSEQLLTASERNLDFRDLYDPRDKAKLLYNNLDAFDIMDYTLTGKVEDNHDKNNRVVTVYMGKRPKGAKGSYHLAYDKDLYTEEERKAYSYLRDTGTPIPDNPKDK
As to the kind of experiment: S. pyogenes streptokinase expression inhibitors, potency, dose response, plasminogen activation absorbance, OD405 (AID 1914).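 Note: secreted streptokinase activity via plasminogen activation per viability signal from cell pellet.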 In kind it is functional, Streptococcus pyogenes M1 GAS.

Assay [17] can be described thus: inhibitors of Bluetongue virus cytopathic effect, confirmation, arbovirus, BSR cells (AID 1250).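 Note: protection from viral cytopathic effect measured as cell viability by ATP luminescence.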 In kind it is functional. (In general: Protection from cytopathic effect is a common read-out in antiviral testing.)
A further assay relates to Streptococcus. The assay is described as follows: Group A Streptococcus viability loss, dose response, counter-screen for streptokinase expression inhibitor project, luminescence, BacTiterGlo (AID 1915).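 Note: potency for reduction of bacterial viability or growth.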 In kind it is functional, organism-based.
For a further assay, the target named is T3, fMet-Leu-Phe receptor (Homo sapiens, UniProt P21462).
T3 sequence (P21462 whole entry): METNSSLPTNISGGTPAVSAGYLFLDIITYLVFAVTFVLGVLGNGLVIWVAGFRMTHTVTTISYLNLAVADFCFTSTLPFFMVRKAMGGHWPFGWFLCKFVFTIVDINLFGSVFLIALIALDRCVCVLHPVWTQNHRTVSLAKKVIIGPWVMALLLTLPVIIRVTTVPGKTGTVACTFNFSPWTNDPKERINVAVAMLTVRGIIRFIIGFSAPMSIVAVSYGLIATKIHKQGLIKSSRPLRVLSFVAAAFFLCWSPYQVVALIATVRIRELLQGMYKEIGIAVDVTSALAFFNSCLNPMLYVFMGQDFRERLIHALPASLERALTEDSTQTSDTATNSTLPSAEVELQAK
The assay is described as follows: FPR ligands, dose response (AID 519). The class given is functional.

Assay [18] can be described thus: NIH-3T3 fibroblast cytotoxicity, dose response, cytotoxicity control, cell-based, fluorescence, Alamar Blue, secondary assay (AID 2327).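 Note: NIH-3T3 mouse fibroblasts cultured with fluconazole at 8 µg/mL.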 The class given is functional. On the technique in general: Alamar Blue is a resazurin reagent that responds to reducing activity.
A short description of assay [19]: C. albicans growth with fluconazole, confirmation, fluorescence, retest (AID 2467). The class given is functional, cell-based.
A short description of assay [20]: cytotoxicity in HPDE-C7 cells, cell-based, fluorescence, HTS (AID 430). The class given is functional. The note with it: Homo sapiens.
Assay [21] can be described thus: cytotoxicity in KRAS-transformed pancreatic duct cells, primary screen, cell-based, fluorescence, HTS (AID 431).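 Note: cell line used: HPDE-C7K.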 In kind it is functional. The settings on record: Homo sapiens.
Assay [22] can be described thus: growth suppression of PTEN-null colon cells, dose response, cell-based, HCT116 PTEN knockout (AID 1047).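 Note: HCT116 colon tumor cells with PTEN knocked out; cells exposed to compound for 60 hours before readout; potency for loss of cell viability measured by luminescence.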 The class given is functional.
Assay [23] addresses T4, Sphingosine 1-phosphate receptor 4 (Homo sapiens, UniProt O95977).
T4 sequence (O95977 whole entry): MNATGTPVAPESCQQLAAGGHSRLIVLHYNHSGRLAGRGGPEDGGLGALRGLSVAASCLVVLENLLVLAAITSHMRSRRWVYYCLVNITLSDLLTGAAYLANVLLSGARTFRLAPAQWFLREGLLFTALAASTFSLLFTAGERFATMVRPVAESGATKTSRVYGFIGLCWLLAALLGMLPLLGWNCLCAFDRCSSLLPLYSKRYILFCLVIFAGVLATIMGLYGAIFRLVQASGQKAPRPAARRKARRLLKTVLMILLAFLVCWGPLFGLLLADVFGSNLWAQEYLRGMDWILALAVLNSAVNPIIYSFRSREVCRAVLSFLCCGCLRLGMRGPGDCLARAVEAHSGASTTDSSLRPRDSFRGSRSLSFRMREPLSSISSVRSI
As to the kind of experiment: Late stage fluorescence dose response cell-based screening assay for antagonists of the Sphingosine 1-Phosphate Receptor 4 (S1P4). [Related pubchem assays: 1524 (Confirmation screen (S1P4 antagonists).), 1510 (Primary screen (S1P4 antagonists).), 1853 (Summary AID (S1P4 antagonists).), 1692 (Dose response screen (S1P4 antagonists).)]. The class given is functional.

Assay [24] in a line: growth suppression of beta-catenin-knockout colon cells, dose response, cell-based, HCT116, human colon tumor (AID 1045).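 Note: HCT116 colon tumor cells with beta catenin knocked out; cells exposed to compound for 60 hours.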 The class given is functional.
For assay [25], the target named is T4, Sphingosine 1-phosphate receptor 4. As to the kind of experiment: Fluorescence dose response cell-based high throughput screening assay for antagonists of the Sphingosine 1-Phosphate Receptor 4 (S1P4). [Related pubchem assays: 1524 (Confirmation in triplicates.), 1510 (Primary screen.)]. The class given is functional.
The target in assay [26] is Sphingosine 1-phosphate receptor 1 (Homo sapiens, UniProt P21453). The class given is functional.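 Note: Tango beta-arrestin reporter U2OS cells stimulated with S1P near its EC80; inhibitor potency meaning antagonism of receptor activation by the natural agonist.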
Chain of Sphingosine 1-phosphate receptor 1 (P21453 whole entry): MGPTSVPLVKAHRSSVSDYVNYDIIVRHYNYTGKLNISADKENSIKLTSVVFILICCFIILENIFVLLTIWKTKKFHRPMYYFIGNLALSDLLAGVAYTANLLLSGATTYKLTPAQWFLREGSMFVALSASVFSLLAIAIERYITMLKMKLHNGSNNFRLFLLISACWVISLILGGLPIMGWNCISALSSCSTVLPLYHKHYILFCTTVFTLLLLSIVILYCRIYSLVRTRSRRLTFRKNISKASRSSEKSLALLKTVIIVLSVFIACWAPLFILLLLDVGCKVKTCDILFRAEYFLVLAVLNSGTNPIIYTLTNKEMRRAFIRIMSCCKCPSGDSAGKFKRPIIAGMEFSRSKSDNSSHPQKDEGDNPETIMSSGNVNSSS
Assay [27] in a line: THP-1 cell cytotoxicity, dose response, cytotoxicity control for non-replicating M. tuberculosis project (AID 489025). The class given is functional.
Assay [28] in a line: Vero E6 cell cytotoxicity, dose response, cytotoxicity control for non-replicating M. tuberculosis project, secondary assay (AID 492998). In kind it is functional, VeroE6. The settings on record: Vero C1008.
A short description of assay [29]: cells. In kind it is functional.
In assay [30] the target is Protein-tyrosine kinase 2-beta (Homo sapiens, UniProt Q14289).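 Note: potency of inhibitors of PYK2 kinase phosphorylation of poly-GT substrate.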
Chain of Protein-tyrosine kinase 2-beta (Q14289 whole entry): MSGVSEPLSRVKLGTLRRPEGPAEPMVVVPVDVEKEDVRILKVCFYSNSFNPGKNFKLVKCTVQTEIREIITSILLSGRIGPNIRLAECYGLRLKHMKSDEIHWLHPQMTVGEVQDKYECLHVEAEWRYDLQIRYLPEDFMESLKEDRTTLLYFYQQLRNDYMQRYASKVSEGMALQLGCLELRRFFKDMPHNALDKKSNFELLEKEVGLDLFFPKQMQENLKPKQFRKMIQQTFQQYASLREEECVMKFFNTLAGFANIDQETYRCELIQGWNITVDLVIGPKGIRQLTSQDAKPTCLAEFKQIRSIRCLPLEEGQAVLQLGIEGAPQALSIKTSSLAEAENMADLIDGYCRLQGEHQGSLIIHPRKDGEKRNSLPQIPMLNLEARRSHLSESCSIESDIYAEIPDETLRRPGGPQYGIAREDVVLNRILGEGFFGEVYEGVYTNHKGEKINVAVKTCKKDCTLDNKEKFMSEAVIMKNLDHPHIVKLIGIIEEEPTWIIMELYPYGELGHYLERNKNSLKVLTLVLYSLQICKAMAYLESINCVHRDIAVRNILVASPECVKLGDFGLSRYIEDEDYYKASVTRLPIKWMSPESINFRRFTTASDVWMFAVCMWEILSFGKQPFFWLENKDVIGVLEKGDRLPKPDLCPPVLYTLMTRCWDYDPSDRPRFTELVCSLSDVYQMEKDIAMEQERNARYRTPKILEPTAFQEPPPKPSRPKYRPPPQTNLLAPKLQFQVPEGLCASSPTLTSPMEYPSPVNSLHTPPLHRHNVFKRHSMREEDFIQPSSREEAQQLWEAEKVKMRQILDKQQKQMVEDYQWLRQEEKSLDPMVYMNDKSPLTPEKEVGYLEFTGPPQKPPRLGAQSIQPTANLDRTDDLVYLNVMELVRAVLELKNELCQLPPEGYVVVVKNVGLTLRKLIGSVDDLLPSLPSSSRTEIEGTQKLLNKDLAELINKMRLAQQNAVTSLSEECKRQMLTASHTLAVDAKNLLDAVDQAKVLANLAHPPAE
For a further assay, the target named is T5, Estrogen receptor (Homo sapiens, UniProt P03372).
T5 sequence (P03372 whole entry): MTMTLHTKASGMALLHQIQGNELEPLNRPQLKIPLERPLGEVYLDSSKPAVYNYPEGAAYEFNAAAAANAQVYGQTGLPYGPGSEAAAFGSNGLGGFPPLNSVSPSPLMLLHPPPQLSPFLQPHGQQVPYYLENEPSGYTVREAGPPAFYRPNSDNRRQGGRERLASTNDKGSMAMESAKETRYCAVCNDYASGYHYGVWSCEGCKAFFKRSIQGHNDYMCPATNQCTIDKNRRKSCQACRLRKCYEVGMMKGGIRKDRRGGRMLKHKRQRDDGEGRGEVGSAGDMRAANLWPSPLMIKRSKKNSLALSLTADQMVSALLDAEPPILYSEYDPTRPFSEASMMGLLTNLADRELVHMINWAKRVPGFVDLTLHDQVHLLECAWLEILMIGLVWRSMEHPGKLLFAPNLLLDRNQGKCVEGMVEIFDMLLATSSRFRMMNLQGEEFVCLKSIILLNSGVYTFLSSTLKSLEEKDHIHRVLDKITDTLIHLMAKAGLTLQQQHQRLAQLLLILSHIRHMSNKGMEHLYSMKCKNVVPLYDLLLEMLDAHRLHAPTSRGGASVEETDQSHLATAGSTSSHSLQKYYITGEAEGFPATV
As to the kind of experiment: potentiators of ERα–SRC-1 coactivator binding, dose response, biochemical, TR-FRET, ERα LBD (AID 737).

The source made the active and inactive calls.

T1 sequence (P08659 whole entry): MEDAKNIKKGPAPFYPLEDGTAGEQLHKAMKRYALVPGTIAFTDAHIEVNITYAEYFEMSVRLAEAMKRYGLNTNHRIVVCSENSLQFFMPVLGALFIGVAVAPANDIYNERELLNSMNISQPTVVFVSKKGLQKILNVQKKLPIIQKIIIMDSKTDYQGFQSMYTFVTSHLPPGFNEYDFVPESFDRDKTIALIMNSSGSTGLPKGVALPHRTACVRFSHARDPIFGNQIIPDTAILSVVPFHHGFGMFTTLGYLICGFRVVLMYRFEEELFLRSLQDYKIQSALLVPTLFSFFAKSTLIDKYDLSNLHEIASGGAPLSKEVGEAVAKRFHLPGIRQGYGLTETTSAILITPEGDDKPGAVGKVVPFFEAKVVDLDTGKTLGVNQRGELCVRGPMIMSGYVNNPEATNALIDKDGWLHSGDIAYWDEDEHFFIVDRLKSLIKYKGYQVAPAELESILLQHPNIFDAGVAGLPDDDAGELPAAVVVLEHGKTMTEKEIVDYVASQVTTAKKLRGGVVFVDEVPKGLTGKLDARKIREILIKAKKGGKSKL

In general, EC50 refers to the concentration giving half of the maximal effect. As usually defined, the IC50 is the midpoint of a concentration-inhibition curve. As a reminder, the AC50 is the concentration giving half of the maximal activity seen. In the case of `CCN1C=CC(=C2C(=O)c3ccccc3C2=O)C=C1`, the concentration giving a half-maximal response (EC50) in [1] was < 0.1 µM (active); in assay [2], 0.324 µM (active); in assay [3], 10.1 µM (active); in “cells [4]”, 0.317 µM (active); in assay [5], < 0.1 µM (active); in assay [6], < 0.1 µM (active). Further, the EC50 in assay [7] is 1.85 µM (active); in assay [8] it was 6.3 µM (active); in the assay with HT-1080, > 50 µM (not active); in [11] it was 0.247 µM (active). Further, the IC50 was 15 µM (not active) in [9], 43.5 µM (not active) in [10] and > 80 µM (inactive) in [12]. Moreover, the AC50 in assay [13] was 13.6 µM (active).

In general, CC50 refers to the concentration at which the toxic effect on the cells reaches its halfway point. In the case of `COc1ccc(N=Nc2[nH]c3ccc(C)cc3c2O)cc1`, in the assay on HeLa, the CC50 is given as > 33 µM (not active). Further, the IC50 in assay [14] is 8.35 µM (active); in [15], 7.98 µM (active).

`O=C(O)Cc1c[nH]c2ccc(O)cc12`: the EC50 on Bcl-2-like protein 10 is 7.88 µM (active).

The Ki is a dissociation constant, usually derived from enzyme kinetics or from competition with a known ligand. Consider `CCOC(=O)c1sc(=S)n2c1[nH]c(=O)c1ccc(C(=O)OC)cc12`, for which the concentration giving a half-maximal response (EC50) in assay [16] was 6.34 µM (active); at Streptokinase A, > 150 µM (not active); in the assay with Streptococcus, 11.5 µM (active). In addition, the IC50 in [17] was 53 µM (active). For the same compound, the Ki on fMet-Leu-Phe receptor is > 66.7 µM (inactive).

For the compound `CCCS(=O)(=O)c1nnnn1-c1cccc(OC)c1`, the EC50 in assay [18] is 5.1 µM (inconclusive); in assay [19] it was 2.49 µM (active); in assay [20] it was 6.57 µM (active); in assay [21] it was 6.25 µM (active); in assay [22], 7.57 µM (active); in [24], 6.66 µM (active). Besides, the IC50 in assay [23] is 4.51 µM (not active); in assay [25], 0.951 µM (active); in [26] it was 20.1 µM (not active); in the assay “cells [29]”, 5.35 µM (active). In addition, the half-maximal cytotoxic concentration (CC50) was 17.8 µM (active) in assay [27] and 11.7 µM (active) in [28].

As for `O=c1cc(-c2ccco2)oc2c1ccc1ccccc12`, the IC50 in assay [30] is > 69.5 µM (not active). The concentration for a half-maximal effect (EC50) at Estrogen receptor was 12.4 µM (active).
